Experimental data as given in ChEMBL document CHEMBL3046875, “Potential cytotoxic and apoptosis inducing agents: synthesis and evaluation of methoxy-substituted chalcones against human lung and cervical cancers” (Med Chem Res, 2013).

What was measured:
HCT-15 = experiment: Cytotoxicity against Homo sapiens (human) HCT15 cells assessed as cell viability after 72 hr by MTT assay; assay type: functional, cell-based; settings: HCT-15, 72 h
HeLa [1] = experiment: Cytotoxicity against Homo sapiens (human) HeLa cells assessed as cell viability after 72 hr by MTT assay; assay type: functional, cell-based
A549 [2] = experiment: Cytotoxicity against Homo sapiens (human) A549 cells assessed as cell viability after 72 hr by MTT assay; assay type: functional, cell-based; settings: A549, 72 h
HeLa [3] = experiment: Cell cycle arrest in Homo sapiens (human) HeLa cells assessed as accumulation at G2/M phase at 2 uM after 48 hr by propidium iodide staining-based flow cytometric analysis (reference value: 22.68%); assay type: functional
HeLa [4] = experiment: Cell cycle arrest in Homo sapiens (human) HeLa cells assessed as accumulation at S phase at 2 uM after 48 hr by propidium iodide staining-based flow cytometric analysis (reference value: 14.14%); assay type: functional
HeLa [5] = experiment: Cell cycle arrest in Homo sapiens (human) HeLa cells assessed as accumulation at sub G0 phase at 2 uM after 48 hr by propidium iodide staining-based flow cytometric analysis (reference value: 0.88%); assay type: functional
A549 [6] = experiment: Cell cycle arrest in Homo sapiens (human) A549 cells assessed as accumulation at sub G0 phase at 2 uM after 48 hr by propidium iodide staining-based flow cytometric analysis (reference value: 1.37%); assay type: functional
A549 [7] = experiment: Cell cycle arrest in Homo sapiens (human) A549 cells assessed as accumulation at G2/M phase at 2 uM after 48 hr by propidium iodide staining-based flow cytometric analysis (reference value: 11.03%); assay type: functional
HeLa [8] = experiment: Cell cycle arrest in Homo sapiens (human) HeLa cells assessed as accumulation at G0/G1 phase at 2 uM after 48 hr by propidium iodide staining-based flow cytometric analysis (reference value: 63.3%); assay type: functional
A549 [9] = experiment: Cell cycle arrest in Homo sapiens (human) A549 cells assessed as accumulation at G0/G1 phase at IC50 after 48 hr by propidium iodide staining-based flow cytometric analysis (reference value: 74.9%); assay type: functional
A549 [10] = experiment: Cell cycle arrest in Homo sapiens (human) A549 cells assessed as accumulation at S phase at IC50 after 48 hr by propidium iodide staining-based flow cytometric analysis (reference value: 12.83%); assay type: functional
HeLa [11] = experiment: Cell cycle arrest in Homo sapiens (human) HeLa cells assessed as accumulation at S phase at IC50 after 48 hr by propidium iodide staining-based flow cytometric analysis (reference value: 14.14%); assay type: functional
HeLa [12] = experiment: Cell cycle arrest in Homo sapiens (human) HeLa cells assessed as accumulation at G0/G1 phase at IC50 after 48 hr by propidium iodide staining-based flow cytometric analysis (reference value: 63.3%); assay type: functional
A549 [13] = experiment: Cell cycle arrest in Homo sapiens (human) A549 cells assessed as accumulation at G2/M phase at IC50 after 48 hr by propidium iodide staining-based flow cytometric analysis (reference value: 11.03%); assay type: functional
A549 [14] = experiment: Cell cycle arrest in Homo sapiens (human) A549 cells assessed as accumulation at sub G0 phase at IC50 after 48 hr by propidium iodide staining-based flow cytometric analysis (reference value: 1.37%); assay type: functional
HeLa [15] = experiment: Cell cycle arrest in Homo sapiens (human) HeLa cells assessed as accumulation at sub G0 phase at IC50 after 48 hr by propidium iodide staining-based flow cytometric analysis (reference value: 0.88%); assay type: functional
HeLa [16] = experiment: Cell cycle arrest in Homo sapiens (human) HeLa cells assessed as accumulation at G2/M phase at IC50 after 48 hr by propidium iodide staining-based flow cytometric analysis (reference value: 22.68%); assay type: functional

| SMILES | IC50 (HCT-15) | IC50 (HeLa [1]) | IC50 (A549 [2]) | further results |
| --- | --- | --- | --- | --- |
| COc1ccc(C(=O)/C=C/c2ccc(OC)cc2OC)c(F)c1 | 72.2 nM | 260 nM | > 100000 nM | – |
| COc1cccc2c1C(=O)c1c(O)c3c(c(O)c1C2=O)C[C@@](O)(C(=O)CO)C[C@@H]3O[C@H]1C[C@H](N)[C@H](O)[C@H](C)O1.Cl [DOXORUBICIN HYDROCHLORIDE] | – | – | – | Activity (HeLa [3]): 36.19%; Activity (HeLa [4]): 55.74%; Activity (HeLa [5]): 61.55%; Activity (A549 [6]): 1.34%; Activity (A549 [7]): 0.98%; Activity (HeLa [8]): 30.86% |
| COc1ccc(C(=O)/C=C/c2cc(OC)c(OC)c(OC)c2)c(F)c1 | 50.5 nM | 144 nM | 108 nM | – |
| COc1ccc(C(=O)/C=C/c2c(OC)cc(OC)cc2OC)c(F)c1 | > 100000 nM | > 100000 nM | > 100000 nM | – |
| COc1cc(/C=C/C(=O)c2ccccc2F)cc(OC)c1OC | 134 nM | 228 nM | > 100000 nM | – |
| COc1ccc(/C=C/C(=O)c2ccccc2F)c(OC)c1 | 55.9 nM | 175 nM | 87.3 nM | Activity (A549 [9]): 5.64%; Activity (A549 [10]): 59.98%; Activity (HeLa [11]): 12.64%; Activity (HeLa [12]): 22.61%; Activity (A549 [13]): 6.18%; Activity (A549 [14]): 20.48%; Activity (HeLa [15]): 29.37%; Activity (HeLa [16]): 56.9% |
| COc1ccc(C(=O)/C=C/c2cc(OC)c(OC)cc2OC)c(F)c1 | 72.2 nM | > 100000 nM | 202 nM | – |
| COc1cc(OC)c(OC)cc1/C=C/C(=O)c1ccccc1F | 55.3 nM | 293 nM | 79 nM | – |
| COc1cc(OC)c(/C=C/C(=O)c2ccccc2F)c(OC)c1 | 79 nM | 50.6 nM | > 100000 nM | – |
| COc1cc(/C=C/C(=O)c2ccc(OC)cc2F)cc(OC)c1 | 55.3 nM | 243 nM | 101 nM | – |
| COc1cc(/C=C/C(=O)c2ccccc2F)cc(OC)c1 | 20.9 nM | 62.9 nM | 43.6 nM | Activity (A549 [9]): 2.66%; Activity (A549 [10]): 9.85%; Activity (HeLa [11]): 18.21%; Activity (HeLa [12]): 70.2%; Activity (A549 [13]): 2.22%; Activity (A549 [14]): 61.59%; Activity (HeLa [15]): 9.11%; Activity (HeLa [16]): 26.68% |
| COc1ccc(C(=O)/C=C/c2ccc(OC)c(OC)c2OC)c(F)c1 | 31.7 nM | 211 nM | 108 nM | – |
| COc1ccc(OC)c(/C=C/C(=O)c2ccccc2F)c1 | 61.1 nM | 96.1 nM | 114 nM | Activity (A549 [9]): 1.36%; Activity (A549 [10]): 89.78%; Activity (HeLa [11]): 0.94%; Activity (HeLa [12]): 7.9%; Activity (A549 [13]): 16.84%; Activity (A549 [14]): 20.31%; Activity (HeLa [15]): 27.52%; Activity (HeLa [16]): 35.28% |
